ChEMBL document CHEMBL1201862, “PubChem BioAssay data set” (2004)
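A five-concentration, 48-hour dose response in 96-well plates underlies each endpoint, interpolated linearly between surrounding concentrations. Here, GI50 denotes the concentration required for 50% inhibition of growth.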 Calls of active or inactive are those of the source. Cut-off read from the data, not from the text of the source: active = GI50 up to about 1.1 µM and inactive = higher.

How the values were obtained:
Test in all cases: DTP human tumour cell line panel, 48 h
A498 = tested on: A498
ACHN = tested on: ACHN
CAKI-1 = tested on: CAKI-1
HOP-92 = tested on: HOP-92
KM12 = tested on: KM12
LOX IMVI = tested on: LOX IMVI
LXFL 529 = tested on: LXFL 529
M14 = tested on: M14
OVCAR-4 = tested on: OVCAR-4
OVCAR-5 = tested on: OVCAR-5
OVCAR-8 = tested on: OVCAR-8
SF-268 = tested on: SF-268
SF-295 = tested on: SF-295
SK-MEL-28 = tested on: SK-MEL-28
SK-MEL-2 = tested on: SK-MEL-2
SK-OV-3 = tested on: SK-OV-3
SNB-75 = tested on: SNB-75
UO-31 = tested on: UO-31
NCI/ADR-RES = tested on: NCI/ADR-RES

Measured: GI50

C1CN(P2(N3CC3)=NP(N3CC3)(N3CC3)=NP(N3CC3)(N3CC3)=N2)CCO1 (stereo not drawn) [FOTRETAMINE]
inactive: A498 > 100 µM | ACHN 37.5 µM | CAKI-1 > 100 µM | HOP-92 > 100 µM | KM12 > 100 µM | LOX IMVI 72.4 µM | LXFL 529 > 100 µM | M14 > 100 µM | OVCAR-4 > 100 µM | OVCAR-5 > 100 µM | OVCAR-8 > 100 µM | SF-268 47.3 µM | SF-295 54.7 µM | SK-MEL-28 > 100 µM | SK-MEL-2 > 100 µM | SK-OV-3 > 100 µM | SNB-75 55.7 µM | UO-31 > 100 µM

Cc1ccccc1/C=C/c1csnn1
inactive: A498 > 100 µM | ACHN > 100 µM | CAKI-1 > 100 µM | HOP-92 > 100 µM | KM12 > 100 µM | LOX IMVI > 58.7 µM | LXFL 529 > 100 µM | M14 > 100 µM | OVCAR-4 > 100 µM | OVCAR-5 > 100 µM | OVCAR-8 > 100 µM | SF-268 > 46.2 µM | SF-295 > 100 µM | SK-MEL-28 > 100 µM | SK-MEL-2 > 100 µM | SK-OV-3 > 100 µM | SNB-75 > 100 µM | UO-31 > 100 µM

O=C1NC(=S)NC(=O)C1=Cc1ccc2ccccc2n1
inactive: A498 > 100 µM | ACHN > 100 µM | CAKI-1 > 100 µM | HOP-92 > 100 µM | KM12 > 100 µM | LOX IMVI > 100 µM | LXFL 529 > 100 µM | M14 > 100 µM | OVCAR-4 > 100 µM | OVCAR-5 > 100 µM | OVCAR-8 > 100 µM | SF-268 > 100 µM | SF-295 > 100 µM | SK-MEL-28 > 100 µM | SK-MEL-2 > 100 µM | SK-OV-3 > 100 µM | SNB-75 > 100 µM | UO-31 > 100 µM

CN(C)CC1CC/C(=C\c2ccc(Cl)cc2)C1=O (stereo not drawn)
inactive: A498 13.5 µM | ACHN 12.6 µM | CAKI-1 3.33 µM | HOP-92 7.73 µM | KM12 3.46 µM | LOX IMVI 2.4 µM | LXFL 529 1.99 µM | M14 10.1 µM | NCI/ADR-RES 3.24 µM | OVCAR-4 15.1 µM | OVCAR-5 18.2 µM | OVCAR-8 3.58 µM | SF-268 7.03 µM | SF-295 17.2 µM | SK-MEL-28 3.3 µM | SK-MEL-2 12 µM | SK-OV-3 15.7 µM | SNB-75 14.8 µM | UO-31 16.6 µM
